Source: PMC2151644 (The Journal of General Physiology, 2007)
Numbering of substitutions follows the chain as printed.

Columns and labels:
[1] = target: T1, epithelial sodium channel (ENaC), β subunit (FLAG-tagged β-ENaC) (Rattus norvegicus, UniProt P37089+P37090+P37091); assay: dose-response block of short-circuit current in MDCK monolayers; format: cell-based
T1 sequence (P37090 1-638): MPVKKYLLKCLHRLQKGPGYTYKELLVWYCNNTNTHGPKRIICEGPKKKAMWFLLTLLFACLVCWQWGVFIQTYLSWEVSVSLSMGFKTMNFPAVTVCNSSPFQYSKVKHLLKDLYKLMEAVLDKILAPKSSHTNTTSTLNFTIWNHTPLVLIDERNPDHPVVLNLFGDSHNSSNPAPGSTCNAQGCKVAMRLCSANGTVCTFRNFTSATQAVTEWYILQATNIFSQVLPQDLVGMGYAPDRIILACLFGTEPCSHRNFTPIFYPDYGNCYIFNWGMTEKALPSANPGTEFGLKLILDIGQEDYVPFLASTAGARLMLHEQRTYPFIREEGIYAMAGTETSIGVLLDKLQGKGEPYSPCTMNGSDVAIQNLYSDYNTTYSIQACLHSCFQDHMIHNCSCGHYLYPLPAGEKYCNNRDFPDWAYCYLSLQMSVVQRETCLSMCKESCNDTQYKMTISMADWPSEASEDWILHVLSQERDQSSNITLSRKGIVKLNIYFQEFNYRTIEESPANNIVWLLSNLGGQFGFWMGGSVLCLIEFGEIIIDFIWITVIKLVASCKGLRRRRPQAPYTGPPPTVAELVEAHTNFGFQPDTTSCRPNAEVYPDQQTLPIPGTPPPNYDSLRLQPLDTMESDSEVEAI
T1 sequence (P37089 1-698): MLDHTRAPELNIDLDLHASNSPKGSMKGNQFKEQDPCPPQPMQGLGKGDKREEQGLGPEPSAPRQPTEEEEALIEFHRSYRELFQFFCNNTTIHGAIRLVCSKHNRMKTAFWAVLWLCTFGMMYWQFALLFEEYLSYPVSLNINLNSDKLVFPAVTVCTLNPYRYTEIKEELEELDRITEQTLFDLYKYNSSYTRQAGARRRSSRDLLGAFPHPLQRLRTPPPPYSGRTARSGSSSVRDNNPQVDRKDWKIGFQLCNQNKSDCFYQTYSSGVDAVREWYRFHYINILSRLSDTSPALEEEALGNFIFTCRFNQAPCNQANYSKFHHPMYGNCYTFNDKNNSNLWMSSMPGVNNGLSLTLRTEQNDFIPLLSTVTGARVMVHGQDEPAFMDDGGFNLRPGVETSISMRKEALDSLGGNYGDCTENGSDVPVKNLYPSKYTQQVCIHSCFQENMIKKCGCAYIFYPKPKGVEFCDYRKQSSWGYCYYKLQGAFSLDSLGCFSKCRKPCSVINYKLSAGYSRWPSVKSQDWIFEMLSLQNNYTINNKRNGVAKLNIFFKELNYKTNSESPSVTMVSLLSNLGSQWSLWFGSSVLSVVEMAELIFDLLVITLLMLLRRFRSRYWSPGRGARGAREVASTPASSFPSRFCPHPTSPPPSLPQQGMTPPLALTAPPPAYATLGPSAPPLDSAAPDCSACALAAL
T1 sequence (P37091 1-650): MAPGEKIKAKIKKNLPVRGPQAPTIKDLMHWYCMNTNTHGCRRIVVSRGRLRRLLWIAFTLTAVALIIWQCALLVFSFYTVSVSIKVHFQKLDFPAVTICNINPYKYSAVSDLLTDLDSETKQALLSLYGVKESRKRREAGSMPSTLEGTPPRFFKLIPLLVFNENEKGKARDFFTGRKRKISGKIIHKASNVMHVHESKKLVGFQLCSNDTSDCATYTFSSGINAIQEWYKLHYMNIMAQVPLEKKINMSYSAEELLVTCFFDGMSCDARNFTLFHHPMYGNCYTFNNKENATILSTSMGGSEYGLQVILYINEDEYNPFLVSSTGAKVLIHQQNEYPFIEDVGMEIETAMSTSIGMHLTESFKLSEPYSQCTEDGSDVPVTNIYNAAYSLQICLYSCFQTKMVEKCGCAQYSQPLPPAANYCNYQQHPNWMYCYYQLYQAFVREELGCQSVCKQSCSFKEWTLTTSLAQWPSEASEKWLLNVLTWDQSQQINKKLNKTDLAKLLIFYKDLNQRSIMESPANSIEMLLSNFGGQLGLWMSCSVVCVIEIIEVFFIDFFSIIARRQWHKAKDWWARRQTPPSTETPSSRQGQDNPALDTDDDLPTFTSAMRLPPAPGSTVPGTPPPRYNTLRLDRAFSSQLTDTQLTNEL

[2] = target: T2, epithelial sodium channel (ENaC), β subunit (FLAG-tagged/G525C β-ENaC) (Rattus norvegicus, UniProt P37089+P37090+P37091, P37090:G525C); assay: as above; format: cell-based
T2 sequence (P37090 1-638 G525C): T1 sequence (P37090 1-638) with G525C
T2 sequence (P37089 1-698): T1 sequence (P37089 1-698)
T2 sequence (P37091 1-650): T1 sequence (P37091 1-650)

SMILES | Ki [1] [µM] | Ki [2] [µM]
N=C(N)NC(=O)c1nc(Cl)c(N)nc1N [amiloride] | 0.084 | 36
NC(=NCc1ccccc1)NC(=O)c1nc(Cl)c(N)nc1N [benzamil] | 0.018 | 2.9
